Patent publication US7951814B2, “Quinazolinedione derivatives as TRPA1 modulators” (Glenmark Pharmaceuticals, S.A., priority 2008, dated 2011)

Target: T1, Human TRPA1 expressing CHO cells (Homo sapiens, UniProt O75762)
T1 construct: expressed in transfected cells; host or cells: CHO cells (under G-418 selection)
Experiment: 45Calcium uptake assay: inhibition of AITC induced cellular uptake of radioactive calcium
Type: cell-based
Details: AITC 30 μM, human TRPA1 CHO cells; for inhibition at 1 µM: 1.0 μM test compound, read-out: Percentage inhibition at 1.0 μM; for inhibition at 10 µM: 10.0 μM test compound, read-out: Percentage inhibition at 10.0 μM; for IC50: read-out: IC50 value (range)
Protocol: The illustrative examples of the present invention are screened for TRPA1 activity according to a modified procedure described in (a) Tóth, A. et al. Life Sciences (2003), 73, 487-498. ([…]. et al. Proc. Natl. Acad. Sci. U.S.A., (2007), 104, 13525-13530. The screening of the compounds can be carried out by other methods and procedures known to persons skilled in the art. Screening for TRPA1 Antagonist Using the ^45Calcium Uptake Assay The inhibition of TRPA1 receptor activation was measured as inhibition of allyl isothiocyanate (AITC) induced cellular uptake of radioactive calcium. […] Final concentration of DMSO in the reaction was 0.5% (v/v). […] Cells were seeded 24 h prior to the assay in 96 well plates so as to get 50,000 cells per well on the day of experiment. Cells were treated with test compounds for 10 min followed by addition of AITC at a final concentration of 30 μM and 5 μCi/ml ^45Ca^+2 for 3 min. […] Radioactivity in the lysate was measured in Packard Top count after addition of liquid scintillant. Concentration response curves were plotted as a % of maximal response obtained in the absence of test antagonist. IC50 value was calculated from concentration response curve by nonlinear regression analysis using GraphPad PRISM software.

T1 sequence (O75762 whole entry): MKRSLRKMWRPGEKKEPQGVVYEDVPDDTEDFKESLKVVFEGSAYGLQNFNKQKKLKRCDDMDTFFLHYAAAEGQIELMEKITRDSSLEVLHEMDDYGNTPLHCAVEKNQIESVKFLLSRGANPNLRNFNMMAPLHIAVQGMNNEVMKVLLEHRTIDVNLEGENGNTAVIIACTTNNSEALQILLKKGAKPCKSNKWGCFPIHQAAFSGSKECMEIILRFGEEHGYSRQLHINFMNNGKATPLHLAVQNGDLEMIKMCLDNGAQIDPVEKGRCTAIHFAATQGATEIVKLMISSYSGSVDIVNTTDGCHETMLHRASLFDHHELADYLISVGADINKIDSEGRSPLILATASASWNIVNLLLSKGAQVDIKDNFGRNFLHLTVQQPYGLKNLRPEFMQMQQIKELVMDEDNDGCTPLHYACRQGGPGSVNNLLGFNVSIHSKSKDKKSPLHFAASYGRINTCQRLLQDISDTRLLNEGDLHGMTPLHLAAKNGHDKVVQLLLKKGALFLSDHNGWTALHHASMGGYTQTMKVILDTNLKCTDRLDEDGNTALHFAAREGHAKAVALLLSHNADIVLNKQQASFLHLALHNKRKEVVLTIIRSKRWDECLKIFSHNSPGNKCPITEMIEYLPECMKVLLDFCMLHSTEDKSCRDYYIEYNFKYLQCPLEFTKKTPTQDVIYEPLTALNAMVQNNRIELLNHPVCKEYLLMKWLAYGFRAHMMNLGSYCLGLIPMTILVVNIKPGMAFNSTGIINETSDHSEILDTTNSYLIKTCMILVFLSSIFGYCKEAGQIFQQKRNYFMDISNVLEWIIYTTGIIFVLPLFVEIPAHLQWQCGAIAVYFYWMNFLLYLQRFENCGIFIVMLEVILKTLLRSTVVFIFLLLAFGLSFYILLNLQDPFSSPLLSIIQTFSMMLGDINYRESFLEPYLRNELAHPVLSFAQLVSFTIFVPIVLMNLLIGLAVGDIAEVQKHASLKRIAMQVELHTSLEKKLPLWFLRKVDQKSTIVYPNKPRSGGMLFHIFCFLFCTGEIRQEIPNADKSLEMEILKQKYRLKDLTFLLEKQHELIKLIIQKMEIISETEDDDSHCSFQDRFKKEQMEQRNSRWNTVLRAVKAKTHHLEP

| inhibition at 1 µM [%] | inhibition at 10 µM [%] | IC50 [nM] | Compound |
| --- | --- | --- | --- |
| 92.5 | 95.3 | > 100 | Cn1c(=O)c2c(CC(=O)Nc3nc(-c4cc(Cl)ccc4F)cs3)cccc2n(C)c1=O [Example 52, N1-[4-(5-Chloro-2-fluorophenyl)-1,3-thiazol-2-yl]-2-(1,3-dimethyl-2,4-dioxo-1,2,3,4-tetrahydro-5-quinazolinyl)acetamide] |
| 11.5 | 27 |  | Cn1c(=O)c2c(CC(=O)Nc3nc(-c4c(Cl)ccc(F)c4Cl)cs3)cccc2n(C)c1=O [Example 64, N1-[4-(2,6Dichloro-3-fluorophenyl)-1,3-thiazol-2-yl]-2-(1,3-dimethyl-2,4-dioxo-1,2,3,4-tetrahydro-5-quinazolinyl)acetamide] |
| 100 | 100 | < 50 | Cn1c(=O)c2c(CC(=O)Nc3nc(-c4ccc(Cl)c(C(F)(F)F)c4)cs3)cccc2n(C)c1=O [Example 55, N1-[4-(4-Chloro, 3-trifluoromethylphenyl)-1,3-thiazol-2-yl]-2-(1,3-dimethyl-2,4-dioxo-1,2,3,4-tetrahydro-5-quinazolinyl)acetamide] |
| 95.3 | 98 | 50.1 to 100 | CC(C)c1ccc(-c2csc(NC(=O)Cc3cccc4c3c(=O)n(C)c(=O)n4C)n2)cc1 [Example 22, N1-[4-(4-isopropylphenyl)-1,3-thiazol-2-yl]-2-(1,3-dimethyl-2,4-dioxo-1,2,3,4-tetrahydro-5-quinazolinyl)acetamide] |
| 30.8 | 43.8 |  | Cn1c(=O)c2c(CC(=O)Nc3nc(-c4ccc(F)cc4)cs3)cccc2n(C)c1=O [Example 9, N1-[4-(4-Fluorophenyl)-1,3-thiazol-2yl]-2-(1,3-dimethyl-2,4-dioxo-1,2,3,4-tetrahydro-5-quinazolinyl)acetamide] |
| 76.8 | 95.8 | 50.1 to 100 | Cn1c(=O)c2c(CC(=O)Nc3nc(-c4cccc(F)c4F)cs3)cccc2n(C)c1=O [Example 35, N1-[4-(2,3-Difluorophenyl)-1,3-thiazol-2-yl]-2-(1,3-dimethyl-2,4-dioxo-1,2,3,4-tetrahydro-5-quinazolinyl)acetamide] |

Further lines, the compound ahead of its results:

| Compound | inhibition at 1 µM [%] | inhibition at 10 µM [%] | IC50 [nM] |
| --- | --- | --- | --- |
| Cc1ccc(Oc2ccc(NC(=O)Cc3cccc4c3c(=O)n(C)c(=O)n4C)cc2)cc1 [Example 3, N1-[4-(4-Methylphenoxy)phenyl]-2-(1,3-dimethyl-2,4-dioxo-1,2,3,4-tetrahydro-5-quinazolinyl)acetamide] | 7.98 | 31.6 |  |
| Cn1c(=O)c2c(CC(=O)Nc3nc(-c4ccc(C(C)(C)C)cc4)cs3)cccc2n(C)c1=O [Example 20, N1-[4-(4-tert-Butylphenyl)-1,3-thiazol-2-yl]-2-(1,3-dimethyl-2,4-dioxo-1,2,3,4-tetrahydro-5-quinazolinyl)acetamide] | 98.9 | 99.8 | 50.1 to 100 |
| Cn1c(=O)c2c(CC(=O)Nc3nc(C4CCCCC4)cs3)cccc2n(C)c1=O [Example 7, N1-[4-(4-Cyclohexyl)-1,3-thiazol-2yl]-2-(1,3-dimethyl-2,4-dioxo-1,2,3,4-tetrahydro-5-quinazolinyl)acetamide] | 62.2 | 60.5 |  |
| COc1ccc(-c2csc(NC(=O)Cc3cccc4c3c(=O)n(C)c(=O)n4C)n2)cc1 [Example 17, N1-[4-(4-Methoxyphenyl)-1,3-thiazol-2-yl]-2-(1,3-dimethyl-2,4-dioxo-1,2,3,4-tetrahydro-5-quinazolinyl)acetamide] | 30 | 75.9 |  |
| CCn1c(=O)c2c(CC(=O)Nc3nc(-c4ccc(Cl)cc4)cs3)cccc2n(CC)c1=O [Example 25, N1-[4-(4-Chlorophenyl)-1,3-thiazol-2-yl]-2-(1,3-diethyl-2,4-dioxo-1,2,3,4-tetrahydro-5-quinazolinyl)acetamide] | 20.4 | 30.8 |  |
